Data on four molecules can be found in US20100204113A1, “USE OF STRESSCOPIN-RELATED PEPTIDE AS A THERAPEUTIC AGENT” (priority 2007, published 2010).

No end group written: not given here.

One data set relates to HepG2-2.2.15 cells. Nature of the data set: Cytotoxicity in the HBV assay (dye uptake). The data set is classed as cell-based. The conditions noted are these: peptide 10 micrograms per ml.
The test system of the next data set is MRC-5 cells. The conditions noted are these: human, 6 days.
The test system of a further data set is HIV-1IIIB. The data set is described as follows: HIV-1 antiviral assay (CPE reduction, MTS). The data set is classed as cell-based. The conditions noted are these: peptide 10 micrograms per ml, 6 days post-infection.
Another data set deals with CEM-SS cells. The data set is described as follows: Cytotoxicity in the HIV-1 assay (cell viability, MTS). The conditions noted are these: peptide 10 micrograms per ml.
Another data set has as its system RAW 264.7 cells. The data set is described as follows: Phagocytosis assay (Fluorescein-labeled Escherichia coli, flow cytometry). The data set is classed as cell-based, mouse. The conditions noted are these: peptide 10 micrograms per ml, 30 min preincubation, 60 min ingestion. On the technique in general: A flow cytometer gives signals particle by particle.
The next data set concerns HUVEC. The data set is described as follows: Endothelial tube formation assay. The data set is classed as cell-based, human. The conditions noted are these: peptide 10 micrograms per ml, 20 hours. From the text: Positive control was vehicle only.
The subject of data set [1] is Primary Human endothelial cells (HUVEC). The data set is described as follows: Endothelial cell migration assay. The data set is classed as cell-based. The conditions noted are these: peptide 10 micrograms per ml, 22 hours.
Data set [2] relates to A549 cells. The data set is described as follows: Apoptosis induction assay (Annexin-5). The data set is classed as cell-based, human. The conditions noted are these: peptide 10 micrograms per ml, 24 hours.
Excerpt: Human A549 cells (carcinomic human alveolar basal epithelial cells) were utilized in the experiments employing the Annexin-5 apoptosis assay.
A short description of data set [3]: Cytotoxicity in the HBV assay (dye uptake). As to conditions: human, HepG2-2.2.15 cells, peptide 10 micrograms per ml, read-out: % Cell Viability. In kind it is cell-based.
For data set [4], the system named is A549 cells. Nature of the data set: Apoptosis prevention assay (C2 ceramide, Annexin-5). The conditions noted are these: 30 min pretreatment with peptide 10 micrograms per ml, then C2 ceramide. In kind it is cell-based, human.
The subject of data set [5] is Human Peripheral Blood Mononuclear Cells (PBMC). The data set is described as follows: T cell proliferation assay (PHA, 3H-thymidine). As to conditions: peptide 10 micrograms per ml, 3H-thymidine incorporation. On the technique in general: Incorporation of labelled thymidine or its analogues reports DNA synthesis.
Data set [6] in a line: in vitro. As to conditions: human, CEM-SS cells.
Data set [7] relates to macrophages prepared from human PBMC. The data set is described as follows: TNF alpha production assay (LPS-stimulated macrophages, ELISA). The data set is classed as cell-based. As to conditions: peptide 10 micrograms per ml, 30 min preincubation, lipopolysaccharide 200 ng/ml overnight. An excerpt:
Not stimulated macrophages served as negative background control.
(An ELISA detects its analyte on a solid surface through an enzyme-linked reagent.)

In data set [8] the test system is A549 cells. The data set is described as follows: Cell cycle assay (propidium iodide, FACS). In kind it is cell-based, human. The conditions noted are these: peptide 10 micrograms per ml, 24 hours. An excerpt:
The cell cycle consists of four distinct phases: […]

In a further data set the test system is Pseudomonas aeruginosa. In kind it is cell-based. The conditions noted are these: 5 micrograms per ml.
Another data set relates to Streptococcus pneumoniae. In kind it is cell-based. The conditions noted are these: 5 micrograms per ml.
Data set [9] deals with Human Peripheral Blood Mononuclear Cells (PBMC). The data set is described as follows: B cell proliferation assay (SAC plus Interleukin-2, 3H-thymidine). In kind it is cell-based. The conditions noted are these: peptide 10 micrograms per ml, 3H-thymidine incorporation.
Data set [10] has as its system hepatitis B virus (HBV) ayw strain. Nature of the data set: HBV assay (secreted HBV DNA, TaqMan PCR). The data set is classed as cell-based. The conditions noted are these: HepG2-2.2.15; peptide 10 micrograms per ml; six days; HBV DNA in supernatant.
Data set [11] is described as follows: in vitro. The conditions noted are these: human, MRC-5 cells.
The subject of a further data set is HCMV strain AD169. Nature of the data set: HCMV plaque reduction assay. As to conditions: MRC-5 cells; peptide 10 micrograms per ml; 7-10 days.
The next data set deals with spleen cells. Nature of the data set: Th1/Th2 cytokine profiling assay (Ovalbumin restimulation, CBA kit). In kind it is cell-based, Balb/c mice. The conditions noted are these: peptide 10 micrograms per ml, 72 hours.
A further data set concerns MRSA. As to conditions: 5 micrograms per ml.

For `Nc1ccn([C@@H]2CS[C@H](CO)O2)c(=O)n1` [3TC, Lamivudine, reference compound], in the data set with HepG2-2.2.15 cells, the “% Cell viability” value was 95.8%.

As to `Nc1nc(O)c2ncn(COC(CO)CO)c2n1` [Ganciclovir], in the data set on MRC-5 cells, the “% Cell viability” value turned out to be 100%.

Consider `Cc1cn([C@H]2C[C@H](N=[N+]=[N-])[C@@H](CO)O2)c(=O)[nH]c1=O` [AZT, reference compound], for which the “% CPE reduction in HIV-1 infected CEM-SS cells” value in the data set on HIV-1IIIB amounted to 99%. The “% Cell viability” value with CEM-SS cells stood at 97%.

Broadly, the viability is a read-out of living cells in per cent, often relative to untreated cells. For orientation: % inhibition means the change of the read-out against control, counted positive when it falls. A higher % inhibition goes with a strong effect. For the molecule “HPGSRIVLSLDVPIGLLQILLEQARARAAREQATTNARILARV-NH2 [Stresscopin-related peptide]”, in the data set on RAW 264.7 cells, the “% of control phagocytosis” value is 131.4%. In the data set on HUVEC, the “% inhibition of tube formation” value was 35%. In addition, in [1], the “% inhibition of migration” value turned out to be 15%. Also, the “% of induction” value in the data set with A549 cells [2] was 1.2%. For the same molecule, in the data set on HIV-1IIIB, the “% CPE reduction in HIV-1 infected CEM-SS cells” value came out at 0.0%. In addition, the viability at 144 h, 10 micrograms per ml in [3] is 100%. The “% prevention of ceramide induced apoptosis” value in the data set on A549 cells [4] is recorded as 0.0%. The “% of PHA induced control” value in [5] is 92.6%. In “in vitro [6]”, this molecule returned a viability at 10 micrograms per ml of 100%. The “% of LPS induction” value in data set [7] is 117.0%. Also, in the data set on A549 cells [8], the “Cell cycle analysis G0/G1” value amounted to 56.9, the “Cell cycle analysis G2/M” value is recorded as 9.7 and the “Cell cycle analysis S” value is 33.4. For the same molecule, the “% inhibition” value with Pseudomonas aeruginosa was 0.0%. Moreover, the “% inhibition” value in the data set on Streptococcus pneumoniae is recorded as 0.0%. The “% of SAC/IL2 induced control” value in data set [9] worked out at 91.4%. Moreover, in data set [10], the “% inhibition of HBV replication in HEP G2 cells” value turned out to be 0.0%. Moreover, the viability at 144 h, 10 micrograms per ml in “in vitro [11]” is 100%. The “% plaque reduction” value in the data set on HCMV strain AD169 is 0.0%. Further, in the data set with spleen cells, the “IFNγ spleen cells; TH1 response (% of control)” value is 105.6 % of control, the “IL-2 spleen cells (% of control)” value is 66.8 % of control, the “IL-4 spleen cells; TH2 response (% of control)” value is 68.9 % of control and the “IL-5 spleen cells; TH2 response (% of control)” value is recorded as 67.0 % of control. Besides, the “TNF-a spleen cells; TH1 response (% of control)” value in the data set with spleen cells is recorded as 125.6 % of control. In addition, the “% inhibition” value in the data set on MRSA is 0.0%.
